{
  "source": "patent US20220365099A1",
  "about": "“DERIVATIZATION OF BETA-LACTAM ANTIBIOTICS FOR MASSSPEC MEASUREMENTS IN PATIENT SAMPLES” (Roche Diagnostics Operations, Inc., priority 2019, published 2022)",
  "assay": "Stability in water at room temperature, LC-MS/MS peak areas over 16 h",
  "format": "physicochemical",
  "conditions": "5 μg/ml in water, timepoints 0, 2, 4, 6, 8 and 16 h",
  "method": "The stability of native Piperacillin as well as its hydrolyzed forms was investigated (compounds 5, 9a and 9b, respectively. From the hydrolyzation pathway of Piperacillin (see schematic drawing in FIG. 1) it is obvious that this compound hydrolyzed both on the piperazin ring and the lactam moiety, only one of both compounds is monitored to account for the loss of native Piperacillin). To this end, these compounds were freshly weighed and dissolved in water at a concentration of 1 mg/mL by rolling for 15 minutes at room temperature. Subsequently, these compounds were diluted to 5 μg/ml and measured with a suitable LC-MS/MS method at timepoints 0, 2, 4, 6, 8 and 16 h. […] The peaks were integrated using MultiQuant software and the areas of these peaks depicted in the graphs in FIGS. 2A and 2B.\nThe stability of double butylamide variants of Piperacillin (compound 7, see FIG. 4) was investigated at 2 MRMs using the identical protocol as in Examples 1.",
  "data": [
    {"smiles": "CCN1CCN(C(=O)N[C@@H](C(=O)N[C@@H]2C(=O)N3[C@@H]2SC(C)(C)[C@@H]3C(=O)O)c2ccccc2)C(=O)C1=O", "note": "[Piperacillin]", "values": [
      {"measurement": "obtained peak-areas over time", "value": "decreasing"}
    ]}
  ]
}
